# Laboratory results published in ChEMBL document CHEMBL6127068, “Discovery of novel nitrofuran PROTAC-like compounds as dual inhibitors and degraders targeting STING” (Eur J Med Chem, 2024).
# Active and inactive are the calls of the source. The rule behind the calls is not given here.
# How the values were obtained:
# [1] = molecular target: T1, Protein cereblon/Stimulator of interferon genes protein (Mus musculus) (UniProt Q3TBT3+Q8C7D2); experiment: In vivo inhibition of STING signaling pathway in C57BL/6J mouse assessed as inhibition of cisplatin-induced CXCL10 mRNA expression in kidney at 25 to 50 mg/kg by qPCR analysis; assay type: functional, organism-based; details: dose 25-50 mg/kg
# T1 sequence (Q8C7D2 whole entry, looked up, one chain of several): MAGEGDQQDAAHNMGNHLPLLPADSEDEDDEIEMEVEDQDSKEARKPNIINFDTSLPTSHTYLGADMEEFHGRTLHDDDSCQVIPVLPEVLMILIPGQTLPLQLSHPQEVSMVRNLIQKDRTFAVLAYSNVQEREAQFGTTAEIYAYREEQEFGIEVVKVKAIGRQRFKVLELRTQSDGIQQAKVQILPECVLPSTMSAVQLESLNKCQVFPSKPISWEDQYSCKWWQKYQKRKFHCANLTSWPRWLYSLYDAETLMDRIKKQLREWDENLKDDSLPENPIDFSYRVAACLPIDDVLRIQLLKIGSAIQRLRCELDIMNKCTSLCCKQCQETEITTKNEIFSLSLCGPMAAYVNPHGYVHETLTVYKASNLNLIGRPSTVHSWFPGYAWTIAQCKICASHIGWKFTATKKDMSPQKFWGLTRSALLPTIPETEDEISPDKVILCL
# [2] = molecular target: T2, Protein cereblon/Stimulator of interferon genes protein (Homo sapiens, UniProt Q96SW2+Q86WV6); experiment: PROTAC activity at CRBN/STING in human THP-1 cells assessed as induction of STING degradation at 10 uM by western blot analysis; assay type: cell-based; details: time 3-36 hrs, TDE = time-dependent effect
# Target sequence in this assay (Q86WV6 whole entry, looked up): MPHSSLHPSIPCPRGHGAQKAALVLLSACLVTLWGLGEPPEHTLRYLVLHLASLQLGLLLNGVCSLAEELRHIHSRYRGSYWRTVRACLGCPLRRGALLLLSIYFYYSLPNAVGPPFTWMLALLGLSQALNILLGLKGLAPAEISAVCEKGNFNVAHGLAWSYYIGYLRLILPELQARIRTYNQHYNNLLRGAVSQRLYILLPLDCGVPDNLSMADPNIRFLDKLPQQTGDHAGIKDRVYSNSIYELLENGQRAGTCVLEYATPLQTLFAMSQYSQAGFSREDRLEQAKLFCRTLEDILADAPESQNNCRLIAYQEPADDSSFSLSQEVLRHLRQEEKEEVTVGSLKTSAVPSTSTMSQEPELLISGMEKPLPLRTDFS
# Target sequence in this assay (Q96SW2 whole entry, looked up): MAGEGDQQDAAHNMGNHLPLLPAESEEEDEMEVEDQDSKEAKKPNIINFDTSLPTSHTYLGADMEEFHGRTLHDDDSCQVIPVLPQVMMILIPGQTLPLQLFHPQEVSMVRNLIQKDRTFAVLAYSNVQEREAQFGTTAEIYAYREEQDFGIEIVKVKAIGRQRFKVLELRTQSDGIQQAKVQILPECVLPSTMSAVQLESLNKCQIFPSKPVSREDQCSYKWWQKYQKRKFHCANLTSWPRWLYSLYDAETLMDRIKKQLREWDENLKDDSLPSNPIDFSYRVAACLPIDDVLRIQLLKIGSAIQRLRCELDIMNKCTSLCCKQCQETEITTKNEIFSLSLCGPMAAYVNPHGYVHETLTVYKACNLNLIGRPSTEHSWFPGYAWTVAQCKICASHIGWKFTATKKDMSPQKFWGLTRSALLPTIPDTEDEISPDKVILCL
# [3] = molecular target: T2, Protein cereblon/Stimulator of interferon genes protein; experiment: PROTAC activity at CRBN/STING in human THP-1 cells assessed as inhibition of cGAMP-induced CXCL10 mRNA expression incubated for 1 hr followed by stimulation with cGAMP for 24 hrs by qRT-PCR analysis; assay type: cell-based; details: dose 5-20 µM, time 25.0 hrs
# Target sequence in this assay (Q86WV6 whole entry, looked up): as the sequence (Q86WV6 whole entry, looked up) above
# Target sequence in this assay (Q96SW2 whole entry, looked up): as the sequence (Q96SW2 whole entry, looked up) above
# Mus musculus [4] = experiment: Anti-inflammatory activity against cisplatin-induced acute kidney injury C57BL/6J mouse model assessed as decrease in plasma uric acid level at 25 to 50 mg/kg; assay type: functional, organism-based; details: dose 25-50 mg/kg
# [5] = molecular target: T2, Protein cereblon/Stimulator of interferon genes protein; experiment: PROTAC activity at CRBN/STING in human THP-1 cells assessed as induction of STING degradation at 10 uM incubated for 24 hrs followed by replacement with fresh medium without compound and measured after 24 hrs by western bot analysis; assay type: cell-based
# Target sequence in this assay (Q86WV6 whole entry, looked up): as the sequence (Q86WV6 whole entry, looked up) above
# Target sequence in this assay (Q96SW2 whole entry, looked up): as the sequence (Q96SW2 whole entry, looked up) above
# [6] = molecular target: T2, Protein cereblon/Stimulator of interferon genes protein; experiment: PROTAC activity at CRBN/STING in human THP-1 cells assessed as inhibition of cGAMP-induced TBK1 phosphorylation incubated for 24 hrs followed by stimulation with cGAMP for 24 hrs by western blot analysis; assay type: cell-based; details: dose 0.3-20 µM, time 48.0 hrs
# Target sequence in this assay (Q86WV6 whole entry, looked up): as the sequence (Q86WV6 whole entry, looked up) above
# Target sequence in this assay (Q96SW2 whole entry, looked up): as the sequence (Q96SW2 whole entry, looked up) above
# [7] = molecular target: T2, Protein cereblon/Stimulator of interferon genes protein; experiment: PROTAC activity at CRBN/STING in human THP-1 cells assessed as induction of STING degradation at 10 uM incubated for 24 hrs by western blot analysis; assay type: cell-based
# Target sequence in this assay (Q86WV6 whole entry, looked up): as the sequence (Q86WV6 whole entry, looked up) above
# Target sequence in this assay (Q96SW2 whole entry, looked up): as the sequence (Q96SW2 whole entry, looked up) above
# [8] = molecular target: T2, Protein cereblon/Stimulator of interferon genes protein; experiment: PROTAC activity at CRBN/STING in human THP-1 cells assessed as induction of STING degradation at 3 uM pretreated with proteasome inhibitor, MG132 for 1 hr followed by incubation with compound for 24 hrs by western blot analysis; assay type: cell-based
# Target sequence in this assay (Q86WV6 whole entry, looked up): as the sequence (Q86WV6 whole entry, looked up) above
# Target sequence in this assay (Q96SW2 whole entry, looked up): as the sequence (Q96SW2 whole entry, looked up) above
# [9] = molecular target: T3, Stimulator of interferon genes protein (Mus musculus) (UniProt Q3TBT3); experiment: Inhibition of STING in mouse RAW264.7 cells assessed as reduction in DMXAA-induced TNF-alpha mRNA expression at 5 to 20 uM pretreated for 1 hr followed by stimulation with DMXAA for 24 hrs by qRT-CPR analysis; assay type: cell-based; details: dose 5-20 µM, time 25.0 hrs
# T3 sequence (whole entry): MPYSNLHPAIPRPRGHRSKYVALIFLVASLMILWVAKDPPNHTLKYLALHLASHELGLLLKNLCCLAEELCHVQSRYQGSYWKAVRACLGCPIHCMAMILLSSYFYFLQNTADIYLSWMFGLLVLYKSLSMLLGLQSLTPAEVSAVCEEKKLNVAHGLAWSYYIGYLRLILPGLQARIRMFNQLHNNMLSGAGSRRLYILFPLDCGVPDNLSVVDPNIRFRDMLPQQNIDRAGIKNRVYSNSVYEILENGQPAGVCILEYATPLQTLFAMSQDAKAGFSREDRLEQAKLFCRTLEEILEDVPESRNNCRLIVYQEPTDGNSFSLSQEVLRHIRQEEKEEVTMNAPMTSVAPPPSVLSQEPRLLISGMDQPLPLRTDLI
# [10] = molecular target: T1, Protein cereblon/Stimulator of interferon genes protein (Mus musculus); experiment: In vivo inhibition of STING signaling pathway in C57BL/6J mouse assessed as inhibition of cisplatin-induced IFN-beta mRNA expression in kidney at 25 to 50 mg/kg by qPCR analysis; assay type: functional, organism-based; details: dose 25-50 mg/kg
# [11] = Toxicity against cisplatin-induced acute kidney injury C57BL/6J mouse model assessed as effect on heart morphology at 25 to 50 mg/kg by Hematoxylin-Eosin staining based microscopic analysis; assay type: organism-based; details: in vivo, dose 25-50 mg/kg
# [12] = molecular target: T2, Protein cereblon/Stimulator of interferon genes protein; experiment: PROTAC activity at CRBN/STING in human THP-1 cells assessed as induction of STING degradation incubated for 24 hrs by western blot analysis; assay type: cell-based
# Target sequence in this assay (Q96SW2 whole entry): as the sequence (Q96SW2 whole entry, looked up) above
# Target sequence in this assay (Q86WV6 whole entry): as the sequence (Q86WV6 whole entry, looked up) above
# THP-1 = experiment: PROTAC activity at CRBN/Akt in human THP-1 cells assessed as induction of Akt degradation at 2.5 to 40 uM incubated for 24 hrs by western blot analysis; assay type: cell-based; details: dose 2.5-40 µM
# [13] = molecular target: Protein cereblon/Signal transducer and activator of transcription 3 (Homo sapiens) (UniProt P40763+Q96SW2); experiment: PROTAC activity at CRBN/STAT3 in human THP-1 cells assessed as induction of STAT3 degradation at 2.5 to 40 uM incubated for 24 hrs by western blot analysis; assay type: cell-based; details: dose 2.5-40 µM
# Protein cereblon/Signal transducer and activator of transcription 3 (Homo sapiens), sequence (P40763 2-770 limits assumed): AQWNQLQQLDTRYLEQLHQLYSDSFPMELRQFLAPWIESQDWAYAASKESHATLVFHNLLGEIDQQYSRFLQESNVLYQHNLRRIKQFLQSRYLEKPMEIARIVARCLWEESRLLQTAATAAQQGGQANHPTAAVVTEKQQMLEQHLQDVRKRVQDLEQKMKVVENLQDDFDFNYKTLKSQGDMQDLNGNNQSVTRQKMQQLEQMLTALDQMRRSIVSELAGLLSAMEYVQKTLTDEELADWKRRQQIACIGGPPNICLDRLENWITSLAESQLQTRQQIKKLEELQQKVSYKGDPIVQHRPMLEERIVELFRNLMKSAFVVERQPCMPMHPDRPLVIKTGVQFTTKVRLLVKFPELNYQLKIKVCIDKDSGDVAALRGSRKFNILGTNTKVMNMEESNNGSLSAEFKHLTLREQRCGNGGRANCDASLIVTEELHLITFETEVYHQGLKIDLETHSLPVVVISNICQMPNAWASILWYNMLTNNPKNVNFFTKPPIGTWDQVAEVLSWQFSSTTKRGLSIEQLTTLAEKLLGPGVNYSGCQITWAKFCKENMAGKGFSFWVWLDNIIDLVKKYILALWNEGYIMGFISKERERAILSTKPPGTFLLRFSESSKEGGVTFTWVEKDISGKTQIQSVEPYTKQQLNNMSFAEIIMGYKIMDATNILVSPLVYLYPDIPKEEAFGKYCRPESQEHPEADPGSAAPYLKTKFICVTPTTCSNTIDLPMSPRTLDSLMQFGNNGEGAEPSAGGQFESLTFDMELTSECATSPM
# Protein cereblon/Signal transducer and activator of transcription 3 (Homo sapiens), sequence (Q96SW2 whole entry partner): as the sequence (Q96SW2 whole entry, looked up) above
# [14] = Toxicity against cisplatin-induced acute kidney injury C57BL/6J mouse model assessed as effect on liver morphology at 25 to 50 mg/kg by Hematoxylin-Eosin staining based microscopic analysis; assay type: organism-based; details: in vivo, dose 25-50 mg/kg
# Mus musculus [15] = experiment: Anti-inflammatory activity against C57BL/6J mouse assessed as inhibition of cisplatin-induced hepatic impairment by measuring restoration of gamma-GT activity at 25 to 50 mg/kg; assay type: functional, organism-based; details: dose 25-50 mg/kg
# HUVEC = experiment: Cytotoxicity against HUVEC assessed as effect on cell viability at <10 uM incubated for 48 hrs by MTT assay; assay type: toxicity, cell-based; details: human
# [16] = molecular target: T1, Protein cereblon/Stimulator of interferon genes protein (Mus musculus); experiment: PROTAC activity at CRBN/STING in mouse RAW264.7 cells assessed as induction of STING degradation at 0.33 to 30 uM incubated for 24 hrs by western blot analysis; assay type: cell-based; details: dose 0.33-30 µM
# [17] = Stability of the compound in human plasma assessed as parent compound remaining at 400 ug/ml measured after 24 hrs by HPLC analysis; assay type: ADME, cell-free; details: at 400 µg/mL, read-out: Stability
# Mus musculus [18] = experiment: Anti-inflammatory activity against C57BL/6J mouse assessed as inhibition of cisplatin-induced hepatic impairment by measuring restoration of ALT activity at 25 to 50 mg/kg; assay type: functional, organism-based; details: dose 25-50 mg/kg
# [19] = molecular target: T2, Protein cereblon/Stimulator of interferon genes protein; experiment: PROTAC activity at CRBN/STING in human THP-1 cells assessed as inhibition of cGAMP-induced ISG56 mRNA expression incubated for 1 hr followed by stimulation with cGAMP for 24 hrs by qRT-PCR analysis; assay type: cell-based; details: dose 5-20 µM, time 25.0 hrs
# Mus musculus [20] = experiment: Anti-inflammatory activity against C57BL/6J mouse assessed as inhibition of cisplatin-induced hepatic impairment by measuring restoration of AST activity at 25 to 50 mg/kg; assay type: functional, organism-based; details: dose 25-50 mg/kg
# Mus musculus [21] = experiment: Anti-inflammatory activity against cisplatin-induced acute kidney injury C57BL/6J mouse model assessed as decrease in plasma BUN level at 25 to 50 mg/kg; assay type: functional, organism-based; details: dose 25-50 mg/kg
# [22] = molecular target: T2, Protein cereblon/Stimulator of interferon genes protein; experiment: PROTAC activity at CRBN/STING in human THP-1 cells assessed as inhibition of cGAMP-induced TNF-alpha mRNA expression incubated for 1 hr followed by stimulation with cGAMP for 24 hrs by qRT-PCR analysis; assay type: cell-based; details: dose 5-20 µM, time 25.0 hrs
# [23] = molecular target: T3, Stimulator of interferon genes protein (Mus musculus); experiment: Inhibition of STING in mouse RAW264.7 cells assessed as reduction in DMXAA-induced IL-6 mRNA expression at 5 to 20 uM pretreated for 1 hr followed by stimulation with DMXAA for 24 hrs by qRT-CPR analysis; assay type: cell-based; details: dose 5-20 µM, time 25.0 hrs
# [24] = Toxicity against cisplatin-induced acute kidney injury C57BL/6J mouse model assessed as decrease in body weight at 25 to 50 mg/kg; assay type: organism-based; details: in vivo, dose 25-50 mg/kg
compound,measurement,setting,value
O=C1CCC(N2C(=O)c3cccc(OCc4cn(CCCCCC(=O)OCCc5ccc(NC(=O)c6ccc([N+](=O)[O-])o6)cc5)nn4)c3C2=O)C(=O)N1 (stereo unspecified),inhibition,[1],Active
same,Activity,[2],Tde
same,Activity,[3],Dose-Dependent Effect
same,Activity,Mus musculus [4],Active
same,Activity,[5],inactive
same,Activity,[6],Dose-Dependent Effect
same,Activity,[7],82%
same,Activity,[8],Active
same,inhibition,[9],Dose-Dependent Effect
same,inhibition,[10],Active
same,Activity,[11],Non-Toxic
same,DC50,[12],2.58 µM
same,Activity,THP-1,inactive
same,Activity,[13],inactive
same,Activity,[14],Non-Toxic
same,Activity,Mus musculus [15],Active
same,Activity,HUVEC,Non-Toxic
same,Activity,[16],inactive
same,"remaining at 24 h, 400 ug/ml",[17],~66%
same,Activity,Mus musculus [18],Active
same,Activity,[19],Dose-Dependent Effect
same,Activity,Mus musculus [20],Active
same,Activity,Mus musculus [21],Active
same,Activity,[22],Dose-Dependent Effect
same,inhibition,[23],Dose-Dependent Effect
same,Activity,[24],Toxic
